From patent US8410112B2, “Compounds useful as inhibitors of ATR kinase” (Vertex Pharmaceuticals Incorporated, priority 2008, dated 2013)

Target: T1, full-length ATR (Homo sapiens, UniProt Q13535)
T1 construct: in the presence of 5 nM full-length ATR
Assay: ATR Inhibition Assay (radioactive-phosphate incorporation)
Assay type: biochemical
Conditions: Ki(app); 5 nM full-length ATR, 10 μM ATP, 800 μM target peptide, 25° C.
Outline: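 After a 10-min pre-incubation of compound with 5 nM enzyme at 25 °C, ATP was added to start the reaction (final 10 μM [γ-33P]ATP, 800 μM peptide; Tris/HCl pH 7.5, MgCl2, DTT), which ran 24 h. Incorporated 33P was captured on phosphocellulose filters, and Ki(app) was fitted by non-linear regression.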

T1 sequence (Q13535 whole entry): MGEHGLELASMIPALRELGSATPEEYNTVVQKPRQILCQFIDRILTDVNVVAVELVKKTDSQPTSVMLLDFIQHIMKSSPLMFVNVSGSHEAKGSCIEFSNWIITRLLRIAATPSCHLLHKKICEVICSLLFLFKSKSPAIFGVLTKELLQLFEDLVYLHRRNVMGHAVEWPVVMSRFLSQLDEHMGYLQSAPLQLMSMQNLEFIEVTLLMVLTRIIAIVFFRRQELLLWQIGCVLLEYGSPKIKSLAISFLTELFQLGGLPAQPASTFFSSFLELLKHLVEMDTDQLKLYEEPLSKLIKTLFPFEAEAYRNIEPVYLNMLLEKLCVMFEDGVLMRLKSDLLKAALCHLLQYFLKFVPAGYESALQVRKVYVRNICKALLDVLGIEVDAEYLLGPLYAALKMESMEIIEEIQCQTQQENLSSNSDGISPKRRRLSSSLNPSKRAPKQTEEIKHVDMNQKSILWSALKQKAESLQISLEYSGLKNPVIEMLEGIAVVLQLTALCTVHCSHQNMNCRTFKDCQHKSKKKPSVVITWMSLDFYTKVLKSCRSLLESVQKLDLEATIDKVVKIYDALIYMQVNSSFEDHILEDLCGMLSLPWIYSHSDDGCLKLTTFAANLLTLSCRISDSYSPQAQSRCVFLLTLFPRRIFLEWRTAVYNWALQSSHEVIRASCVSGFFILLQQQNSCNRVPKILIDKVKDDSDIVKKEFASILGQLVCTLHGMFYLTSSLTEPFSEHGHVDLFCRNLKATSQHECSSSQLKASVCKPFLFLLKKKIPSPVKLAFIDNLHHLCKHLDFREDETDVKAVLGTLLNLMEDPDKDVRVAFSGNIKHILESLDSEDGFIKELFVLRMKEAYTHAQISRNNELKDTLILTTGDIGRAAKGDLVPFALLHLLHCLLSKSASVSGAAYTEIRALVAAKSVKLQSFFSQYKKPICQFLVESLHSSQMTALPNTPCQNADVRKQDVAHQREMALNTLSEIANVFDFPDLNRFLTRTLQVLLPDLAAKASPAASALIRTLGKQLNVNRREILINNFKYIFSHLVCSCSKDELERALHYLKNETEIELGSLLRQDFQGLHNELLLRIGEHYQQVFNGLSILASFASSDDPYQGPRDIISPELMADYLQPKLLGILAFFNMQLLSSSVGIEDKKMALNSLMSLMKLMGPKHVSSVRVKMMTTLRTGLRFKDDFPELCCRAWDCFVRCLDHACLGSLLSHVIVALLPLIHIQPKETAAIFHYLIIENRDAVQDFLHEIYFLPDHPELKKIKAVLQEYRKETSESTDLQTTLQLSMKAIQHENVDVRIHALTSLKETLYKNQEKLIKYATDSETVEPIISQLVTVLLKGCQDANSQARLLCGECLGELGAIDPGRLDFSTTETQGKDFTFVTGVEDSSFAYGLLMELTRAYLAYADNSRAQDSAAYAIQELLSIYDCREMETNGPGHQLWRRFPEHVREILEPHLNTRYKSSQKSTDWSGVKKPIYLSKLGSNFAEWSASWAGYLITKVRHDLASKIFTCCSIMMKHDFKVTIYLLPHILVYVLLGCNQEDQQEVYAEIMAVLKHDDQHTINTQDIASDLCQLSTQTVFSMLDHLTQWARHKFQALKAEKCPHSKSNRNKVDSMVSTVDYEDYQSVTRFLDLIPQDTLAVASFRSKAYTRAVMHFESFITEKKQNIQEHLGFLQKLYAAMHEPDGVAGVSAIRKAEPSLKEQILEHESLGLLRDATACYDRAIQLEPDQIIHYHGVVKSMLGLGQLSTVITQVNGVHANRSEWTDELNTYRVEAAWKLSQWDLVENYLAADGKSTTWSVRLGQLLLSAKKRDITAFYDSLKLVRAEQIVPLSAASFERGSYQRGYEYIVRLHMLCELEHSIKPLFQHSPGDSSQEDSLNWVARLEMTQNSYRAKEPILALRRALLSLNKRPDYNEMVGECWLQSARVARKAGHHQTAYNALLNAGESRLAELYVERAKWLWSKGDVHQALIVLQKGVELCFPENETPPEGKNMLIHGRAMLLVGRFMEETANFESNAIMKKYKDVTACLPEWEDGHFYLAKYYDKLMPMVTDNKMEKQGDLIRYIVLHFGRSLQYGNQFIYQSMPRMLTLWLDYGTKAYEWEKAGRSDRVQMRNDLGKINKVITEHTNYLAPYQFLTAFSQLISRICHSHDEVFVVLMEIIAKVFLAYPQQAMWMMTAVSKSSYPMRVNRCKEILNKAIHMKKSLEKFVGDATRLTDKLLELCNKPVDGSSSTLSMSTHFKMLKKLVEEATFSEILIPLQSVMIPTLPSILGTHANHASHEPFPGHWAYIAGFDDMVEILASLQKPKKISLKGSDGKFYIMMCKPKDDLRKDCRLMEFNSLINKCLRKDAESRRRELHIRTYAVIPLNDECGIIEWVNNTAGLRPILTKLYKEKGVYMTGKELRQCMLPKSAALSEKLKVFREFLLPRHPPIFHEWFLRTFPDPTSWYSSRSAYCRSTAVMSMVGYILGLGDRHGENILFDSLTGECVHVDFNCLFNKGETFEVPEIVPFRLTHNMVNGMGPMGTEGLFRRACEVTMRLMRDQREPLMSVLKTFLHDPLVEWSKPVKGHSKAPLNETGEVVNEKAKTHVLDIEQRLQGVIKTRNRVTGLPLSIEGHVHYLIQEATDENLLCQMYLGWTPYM

**Q.** With `CC(=O)N[C@H]1CCN(c2cnc(N)c(-c3nc4ccccc4[nH]3)n2)C1` [Compound I-185, (S)-N-(1-(5-amino-6-(1H-benzo[d]imidazol-2-yl)pyrazin-2-yl)pyrrolidin-3-yl)ethanamide] as the compound, how does the Ki read?
**A.** The Ki was 100 to 1000 nM.

**Q.** `CN(C)CC(=O)N1CC=C(c2cnc(N)c(-c3nc4ccccc4[nH]3)n2)CC1` [Compound I-186, 1-(4-(5-amino-6-(1H-benzo[d]imidazol-2-yl)pyrazin-2-yl)-5,6-dihydropyridin-1(2H)-yl)-2-(dimethylamino)ethanone] was tested. Which Ki did it give?
**A.** The Ki was 100 to 1000 nM.

**Q.** How did the Ki turn out when `Nc1ncc(N2CCN(C(=O)c3ccccn3)CC2)nc1-c1nnc(-c2ccccc2)o1` [Compound I-187, (4-(5-amino-6-(5-phenyl-1,3,4-oxadiazol-2-yl)pyrazin-2-yl)piperazin-1-yl)(pyridin-2-yl)methanone] was run?
**A.** The Ki was 100 to 1000 nM.

**Q.** `Nc1ncc(N2CC[C@H](NC(=O)c3cccnc3)C2)nc1-c1nc2ccccc2[nH]1` [Compound I-188, (S)-N-(1-(5-amino-6-(1H-benzo[d]imidazol-2-yl)pyrazin-2-yl)pyrrolidin-3-yl)pyridine-3-carboxamide] was tested. Which Ki did it give?
**A.** The Ki was 100 to 1000 nM.

**Q.** How did the Ki turn out when `Nc1ncc(N2CCN(C(=O)C3CCC3)CC2)nc1-c1nnc(-c2ccccc2)o1` [Compound I-189, (4-(5-amino-6-(5-phenyl-1,3,4-oxadiazol-2-yl)pyrazin-2-yl)piperazin-1-yl)(cyclobutyl)methanone] was run?
**A.** The Ki was 100 to 1000 nM.

**Q.** `CC(C)C(=O)N1CCN(c2cnc(N)c(-c3nnc(-c4ccccc4)o3)n2)CC1` [Compound I-190, 1-(4-(5-amino-6-(5-phenyl-1,3,4-oxadiazol-2-yl)pyrazin-2-yl)piperazin-1-yl)-2-methylpropan-1-one] was tested. Which Ki did it give?
**A.** Its Ki is 100 to 1000 nM.

**Q.** With `Nc1ncc(C2=CCN(C(=O)c3cccnc3)CC2)nc1-c1nc2ccccc2[nH]1` [Compound I-191] as the compound, how does the Ki read?
**A.** Its Ki is 100 to 1000 nM.

**Q.** Which Ki does the source give for `CC(C)C(=O)N1CC=C(c2cnc(N)c(-c3nnc(-c4ccccc4)o3)n2)CC1` [Compound I-192, 1-(4-(5-amino-6-(5-phenyl-1,3,4-oxadiazol-2-yl)pyrazin-2-yl)-5,6-dihydropyridin-1(2H)-yl)-2-methylpropan-1-one] here?
**A.** Its Ki is under 100 nM.

**Q.** Which Ki does the source give for `Nc1ncc(N2CC[C@H](NC(=O)c3ccccn3)C2)nc1-c1nc2ccccc2[nH]1` [Compound I-193, (S)-N-(1-(5-amino-6-(1H-benzo[d]imidazol-2-yl)pyrazin-2-yl)pyrrolidin-3-yl)pyridine-2-carboxamide] here?
**A.** The Ki was 100 to 1000 nM.

**Q.** How did the Ki turn out when `Nc1ncc(N2CCN(C(=O)C3CCCC3)CC2)nc1-c1nnc(-c2ccccc2)o1` [Compound I-194, (4-(5-amino-6-(5-phenyl-1,3,4-oxadiazol-2-yl)pyrazin-2-yl)piperazin-1-yl)(cyclopentyl)methanone] was run?
**A.** The Ki was 100 to 1000 nM.

**Q.** How did the Ki turn out when `Nc1ncc(N2CCN(C(=O)COc3ccccc3)CC2)nc1-c1nnc(-c2ccccc2)o1` [Compound I-195, 1-(4-(5-amino-6-(5-phenyl-1,3,4-oxadiazol-2-yl)pyrazin-2-yl)piperazin-1-yl)-2-phenoxyethanone] was run?
**A.** The Ki was 1000 to 10000 nM.

**Q.** With `Nc1ncc(N2CCN(S(=O)(=O)c3ccccc3)CC2)nc1-c1nnc(-c2ccccc2)o1` [Compound I-196, 3-(5-phenyl-1,3,4-oxadiazol-2-yl)-5-(4-(phenylsulfonyl)piperazin-1-yl)pyrazin-2-amine] as the compound, how does the Ki read?
**A.** Its Ki is 100 to 1000 nM.

**Q.** With `Nc1ncc(N2CCN(C(=O)Cc3ccccc3)CC2)nc1-c1nnc(-c2ccccc2)o1` [Compound I-197, 1-(4-(5-amino-6-(5-phenyl-1,3,4-oxadiazol-2-yl)pyrazin-2-yl)piperazin-1-yl)-2-phenylethanone] as the compound, how does the Ki read?
**A.** The Ki was 100 to 1000 nM.

**Q.** With `CC(C)(C)C(=O)N1CCN(c2cnc(N)c(-c3nnc(-c4ccccc4)o3)n2)CC1` [Compound I-198, 1-(4-(5-amino-6-(5-phenyl-1,3,4-oxadiazol-2-yl)pyrazin-2-yl)piperazin-1-yl)-2,2-dimethylpropan-1-one] as the compound, how does the Ki read?
**A.** Its Ki is 100 to 1000 nM.

**Q.** `CC(C)C(=O)N1CCN(c2cnc(N)c(-c3nc4ccccc4[nH]3)n2)CC1` [Compound I-199, 1-(4-(5-amino-6-(1H-benzo[d]imidazol-2-yl)pyrazin-2-yl)piperazin-1-yl)-2-methylpropan-1-one] was tested. Which Ki did it give?
**A.** Its Ki is 1000 to 10000 nM.

**Q.** For `Nc1ncc(C2=CCN(C(=O)C3CCC3)CC2)nc1-c1nc2ccccc2[nH]1` [Compound I-200, (4-(5-amino-6-(1H-benzo[d]imidazol-2-yl)pyrazin-2-yl)-5,6-dihydropyridin-1(2H)-yl)(cyclobutyl)methanone], which Ki is on record?
**A.** Its Ki is under 100 nM.

**Q.** For `Nc1ncc(C2=CCN(C(=O)Cc3ccccc3)CC2)nc1-c1nnc(-c2ccccc2)o1` [Compound I-201, 1-(4-(5-amino-6-(5-phenyl-1,3,4-oxadiazol-2-yl)pyrazin-2-yl)-5,6-dihydropyridin-1(2H)-yl)-2-phenylethanone], which Ki is on record?
**A.** The Ki was under 100 nM.

**Q.** With `Nc1ncc(N2CCN(S(=O)(=O)c3c(F)cccc3F)CC2)nc1-c1nnc(-c2ccccc2)o1` [Compound I-202, 5-(4-(2,6-difluorophenylsulfonyl)piperazin-1-yl)-3-(5-phenyl-1,3,4-oxadiazol-2-yl)pyrazin-2-amine] as the compound, how does the Ki read?
**A.** Its Ki is 100 to 1000 nM.

**Q.** Which Ki does the source give for `Nc1ncc(N2CCN(C(=O)c3c(F)cccc3F)CC2)nc1-c1nnc(-c2ccccc2)o1` [Compound I-203, (4-(5-amino-6-(5-phenyl-1,3,4-oxadiazol-2-yl)pyrazin-2-yl)piperazin-1-yl)(2,6-difluorophenyl)methanone] here?
**A.** The Ki was 100 to 1000 nM.

**Q.** Which Ki does the source give for `Nc1ncc(N2CC[C@H](NC(=O)C3CCCC3)C2)nc1-c1nc2ccccc2[nH]1` [Compound I-204, (S)-N-(1-(5-amino-6-(1H-benzo[d]imidazol-2-yl)pyrazin-2-yl)pyrrolidin-3-yl)cyclopentanecarboxamide] here?
**A.** Its Ki is 100 to 1000 nM.

**Q.** With `Nc1ncc(N2CC[C@H](NC(=O)COc3ccccc3)C2)nc1-c1nc2ccccc2[nH]1` [Compound I-205, (S)-N-(1-(5-amino-6-(1H-benzo[d]imidazol-2-yl)pyrazin-2-yl)pyrrolidin-3-yl)-2-phenoxyethanamide] as the compound, how does the Ki read?
**A.** The Ki was 100 to 1000 nM.

**Q.** With `Nc1ncc(C2=CCN(C(=O)C3CCCC3)CC2)nc1-c1nc2ccccc2[nH]1` [Compound I-206, (4-(5-amino-6-(1H-benzo[d]imidazol-2-yl)pyrazin-2-yl)-5,6-dihydropyridin-1(2H)-yl)(cyclopentyl)methanone] as the compound, how does the Ki read?
**A.** The Ki was 100 to 1000 nM.

**Q.** For `Nc1ncc(N2CCN(S(=O)(=O)c3ccccc3)CC2)nc1C(=O)Nc1ccccn1` [Compound I-207, 3-amino-6-(4-(phenylsulfonyl)piperazin-1-yl)-N-(pyridin-2-yl)pyrazine-2-carboxamide], which Ki is on record?
**A.** The Ki was 100 to 1000 nM.

**Q.** `Nc1ncc(N2CCN(C(=O)c3ccccc3)CC2)nc1-c1nc2ccccc2[nH]1` [Compound I-208, (4-(5-amino-6-(1H-benzo[d]imidazol-2-yl)pyrazin-2-yl)piperazin-1-yl)(phenyl)methanone] was tested. Which Ki did it give?
**A.** Its Ki is 100 to 1000 nM.

**Q.** Which Ki does the source give for `CC(C)(C)C(=O)N1CCN(c2cnc(N)c(C(=O)Nc3ccccn3)n2)CC1` [Compound I-209, 3-amino-6-(4-(2,2-dimethylpropanoyl)piperazin-1-yl)-N-(pyridin-2-yl)pyrazine-2-carboxamide] here?
**A.** Its Ki is 1000 to 10000 nM.

**Q.** `Nc1ncc(C2=CCN(S(=O)(=O)c3ccccc3)CC2)nc1-c1nc2ccccc2[nH]1` [Compound I-210, 3-(1H-benzo[d]imidazol-2-yl)-5-(1-(phenylsulfonyl)-1,2,3,6-tetrahydropyridin-4-yl)pyrazin-2-amine] was tested. Which Ki did it give?
**A.** The Ki was under 100 nM.

**Q.** `CCC(CC)C(=O)N[C@H]1CCN(c2cnc(N)c(-c3nc4ccccc4[nH]3)n2)C1` [Compound I-211, (S)-N-(1-(5-amino-6-(1H-benzo[d]imidazol-2-yl)pyrazin-2-yl)pyrrolidin-3-yl)-2-ethylbutanamide] was tested. Which Ki did it give?
**A.** The Ki was 1000 to 10000 nM.

**Q.** How did the Ki turn out when `CCC(CC)C(=O)N1CCN(c2cnc(N)c(C(=O)Nc3ccccn3)n2)CC1` [Compound I-212, 3-amino-6-(4-(2-ethylbutanoyl)piperazin-1-yl)-N-(pyridin-2-yl)pyrazine-2-carboxamide] was run?
**A.** The Ki was 1000 to 10000 nM.

**Q.** With `Nc1ncc(C2=CCN(C(=O)Cc3ccccc3)CC2)nc1-c1nc2ccccc2[nH]1` [Compound I-213, 1-(4-(5-amino-6-(1H-benzo[d]imidazol-2-yl)pyrazin-2-yl)-5,6-dihydropyridin-1(2H)-yl)-2-phenylethanone] as the compound, how does the Ki read?
**A.** The Ki was 100 to 1000 nM.

**Q.** With `CC(C)(C)C(=O)N1CC=C(c2cnc(N)c(-c3nc4ccccc4[nH]3)n2)CC1` [Compound I-214, 1-(4-(5-amino-6-(1H-benzo[d]imidazol-2-yl)pyrazin-2-yl)-5,6-dihydropyridin-1(2H)-yl)-2,2-dimethylpropan-1-one] as the compound, how does the Ki read?
**A.** The Ki was 100 to 1000 nM.

**Q.** How did the Ki turn out when `Nc1ncc(C2=CCN(C(=O)c3c(F)cccc3F)CC2)nc1-c1nc2ccccc2[nH]1` [Compound I-215, (4-(5-amino-6-(1H-benzo[d]imidazol-2-yl)pyrazin-2-yl)-5,6-dihydropyridin-1(2H)-yl)(2,6-difluorophenyl)methanone] was run?
**A.** The Ki was under 100 nM.

**Q.** With `Nc1ncc(N2CCN(C(=O)N3CCOCC3)CC2)nc1-c1nnc(-c2ccccc2)o1` [Compound I-216, (4-(5-amino-6-(5-phenyl-1,3,4-oxadiazol-2-yl)pyrazin-2-yl)piperazin-1-yl)(morpholino)methanone] as the compound, how does the Ki read?
**A.** The Ki was 100 to 1000 nM.

**Q.** Which Ki does the source give for `Nc1ncc(C2=CCN(C(=O)N3CCOCC3)CC2)nc1-c1nnc(-c2ccccc2)o1` [Compound I-217, (4-(5-amino-6-(5-phenyl-1,3,4-oxadiazol-2-yl)pyrazin-2-yl)-5,6-dihydropyridin-1(2H)-yl)(morpholino)methanone] here?
**A.** The Ki was under 100 nM.

**Q.** Which Ki does the source give for `CN(C)C(=O)N1CCN(c2cnc(N)c(-c3nnc(-c4ccccc4)o3)n2)CC1` [Compound I-218, 4-(5-amino-6-(5-phenyl-1,3,4-oxadiazol-2-yl)pyrazin-2-yl)-N,N-dimethylpiperazine-1-carboxamide] here?
**A.** Its Ki is 100 to 1000 nM.

**Q.** `CS(=O)(=O)N1CCN(c2cnc(N)c(C(=O)Nc3ccccn3)n2)CC1` [Compound I-219, 3-amino-6-(4-(methylsulfonyl)piperazin-1-yl)-N-(pyridin-2-yl)pyrazine-2-carboxamide] was tested. Which Ki did it give?
**A.** The Ki was 100 to 1000 nM.

**Q.** For `CN(C)C(=O)N1CC=C(c2cnc(N)c(-c3nnc(-c4ccccc4)o3)n2)CC1` [Compound I-220, 4-(5-amino-6-(5-phenyl-1,3,4-oxadiazol-2-yl)pyrazin-2-yl)-N,N-dimethyl-5,6-dihydropyridine-1(2H)-carboxamide], which Ki is on record?
**A.** The Ki was under 100 nM.
